Data on 21 compounds can be found in patent US12060347B2 (BRISTOL-MYERS SQUIBB COMPANY, priority 2016, dated 2024).

As usually defined, the IC50 is the concentration that gives 50% inhibition.

This assay concerns the target T1, human PAR4 (Homo sapiens, UniProt Q96RI0).
T1 construct: expressed in transfected cells; host or cells: HEK293 PAR4 Clone 1.2A (BMS Arctic ID 383940)
T1 sequence (Q96RI0 18-385): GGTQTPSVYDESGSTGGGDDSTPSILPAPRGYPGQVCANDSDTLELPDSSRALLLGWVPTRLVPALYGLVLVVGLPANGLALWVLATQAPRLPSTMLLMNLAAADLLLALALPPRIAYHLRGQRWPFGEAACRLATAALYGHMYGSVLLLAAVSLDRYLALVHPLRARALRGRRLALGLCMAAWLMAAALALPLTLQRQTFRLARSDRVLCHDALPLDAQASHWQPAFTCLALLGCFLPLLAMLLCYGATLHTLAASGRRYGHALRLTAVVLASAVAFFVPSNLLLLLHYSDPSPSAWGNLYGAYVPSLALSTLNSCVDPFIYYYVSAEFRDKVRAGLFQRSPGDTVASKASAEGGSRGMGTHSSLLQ
As to the kind of experiment: PAR4 FLIPR assay: antagonism of agonist-peptide-induced calcium mobilization in PAR4-expressing HEK293 cells. Type of assay: cell-based. Particulars: H-Ala-Phe(4-F)-[…]NH2-induced intracellular calcium mobilization, 11-point curves. (Calcium assays in cells follow changes in intracellular calcium, usually with a dye or a luminescent sensor.)

Regarding `COc1cnc2c(-c3nc4c(Cl)c(F)c(OCCOC(=O)Nc5nnc(C)o5)cc4s3)cc(C)cc2n1` [Example 366, 2-((4-chloro-5-fluoro-2-(2-methoxy-7-methylquinoxalin-5-yl)benzo[d]thiazol-6-yl)oxy)ethyl (5-methyl-1,3,4-oxadiazol-2-yl) carbamate], the IC50 stood at 550 nM.

For the compound `COc1cnc2c(-c3nc4cc(F)c(OC[C@@H](C)OC(=O)Nc5cnc(C)c(CO)c5)cc4s3)cc(C)cc2n1` [Example 544, (R)-1-((5-fluoro-2-(2-methoxy-7-methylquinoxalin-5-yl)benzo[d]thiazol-6-yl)oxy)propan-2-yl (5-(hydroxymethyl)-6-methylpyridin-3-yl)carbamate], the IC50 worked out at 34 nM.

For `COc1cnc2c(-c3nc4cc(F)c(O[C@@H](C)[C@@H](C)OC(=O)Nc5cnc(OCCO)nc5)cc4s3)cc(C)cc2c1` [Example 514, (2R,3S)-3-((5-fluoro-2-(3-methoxy-6-methylquinolin-8-yl)benzo[d]thiazol-6-yl)oxy)butan-2-yl (2-(2-hydroxyethoxy)pyrimidin-5-yl)carbamate], the IC50 turned out to be 1.9 nM.

For `Cc1cc(-c2nc3cccc(NC(=O)OCC4CCCO4)c3s2)c2ncc(OC(F)F)nc2c1` (stereo not drawn) [Example 22, (Tetrahydrofuran-2-yl)methyl (2-(2-(difluoromethoxy)-7-methylquinoxalin-5-yl)benzo[d]thiazol-7-yl)carbamate], the IC50 worked out at 1.8 nM.

As for `COc1cnc2c(-c3nc4c(C(F)(F)F)cc(OCCNS(=O)(=O)c5ccc(F)cc5)cc4s3)cc(C)cc2n1` [Example 90, 4-fluoro N-(2-(2-(2-methoxy-7-methylquinoxalin-5-yl)-4-(trifluoromethyl)benzo[d]thiazol-6-yloxy)ethyl)benzenesulfonamide], the IC50 was 84 nM.

Consider `COc1cnc2c(-c3cc4ccccc4o3)cc(C)cc2n1` [Example 175, 5-(benzofuran-2-yl)-2-methoxy-7-methylquinoxaline], for which the IC50 was determined as 23 nM.

For the compound `CCOc1cnc2c(-c3nc4cc(F)c(O[C@@H](C)[C@@H](C)OC(=O)Nc5cnc([C@H](C)O)nc5)cc4s3)cc(C)cc2n1` [Example 535, (2R,3S)-3-((2-(2-ethoxy-7-methylquinoxalin-5-yl)-5-fluorobenzo[d]thiazol-6-yl)oxy)butan-2-yl (2-((S)-1-hydroxyethyl)pyrimidin-5-yl)carbamate], the IC50 is 5.2 nM.

In the case of `COC(=O)c1ncc(NC(=O)O[C@H](C)[C@H](C)Oc2nc3sc(-c4cc(C)cc5nc(OC)cnc45)nc3cc2F)cn1` [Example 712, methyl 5-(((((2R,3S)-3-((6-fluoro-2-(2-methoxy-7-methylquinoxalin-5-yl)thiazolo[5,4-b]pyridin-5-yl)oxy)butan-2-yl)oxy)carbonyl)amino)pyrimidine-2-carboxylate], the IC50 amounted to 3.2 nM.

For `COCc1cnc2c(-c3nc4c(OC)cc(OC)cc4s3)cc(C)cc2n1` [Example 258, 4,6-dimethoxy-2-(2-(methoxymethyl)-7-methylquinoxalin-5-yl)benzo[d]thiazole], the IC50 came out at 2.8 nM.

As to `COc1cnc2c(-c3nc4cc(F)c(O[C@@H](C)[C@@H](C)OC(=O)Nc5cnc(OC[C@@H](C)O)nc5)cc4s3)cc(Cl)cc2c1` [Example 540, (2R,3S)-3-((2-(6-chloro-3-methoxyquinolin-8-yl)-5-fluorobenzo[d]thiazol-6-yl)oxy)butan-2-yl (2-((R)-2-hydroxypropoxy)pyrimidin-5-yl)carbamate], the 50% inhibitory concentration (IC50) stood at 3 nM.

With `COc1cnc2c(-c3nc4cc(F)c(O[C@@H](C)[C@@H](C)OC(=O)Nc5ccc(F)nc5)cc4s3)cc(Cl)cc2c1` [Example 789, (2R,3S)-3-((2-(6-chloro-3-methoxyquinolin-8-yl)-5-fluorobenzo[d]thiazol-6-yl)oxy)butan-2-yl (6-fluoropyridin-3-yl)carbamate], the IC50 was found to be 2.4 nM.

Consider `COCc1cnc2c(-c3nc4c(C(O)c5cccnc5)cc(OC)cc4s3)cc(C)cc2n1` (stereo not drawn) [Example 168, (6-methoxy-2-(2-(methoxymethyl)-7-methylquinoxalin-5-yl)benzo[d]thiazol-4-yl) (pyridin-3-yl)methanol], for which the IC50 came out at 2 nM.

In the case of `COCc1cnc2c(-c3nc4c(C)cc(OCCNS(=O)(=O)c5ccccc5)cc4s3)cc(C)cc2n1` [Example 95, N-(2-((2-(2-(methoxymethyl)-7-methylquinoxalin-5-yl)-4-methylbenzo[d]thiazol-6-yl)oxy)ethyl)benzenesulfonamide], the IC50 came out at 0.8 nM.

Turning to `COc1cnc2c(-c3nc4c(s3)CC(C)(C)CC4)cc(C)cc2n1` [Example 141, 2-(2-methoxy-7-methylquinoxalin-5-yl)-6,6-dimethyl-4,5,6,7-tetrahydrobenzo[d]thiazole], the IC50 came out at 80 nM.

For `CCOc1cnc2c(-c3nc4cc(F)c(O[C@@H](C)[C@@H](C)OC(=O)Nc5cnc(OC[C@@H](C)O)nc5)cc4s3)cc(C)cc2n1` [Example 580, (2R,3S)-3-((2-(2-ethoxy-7-methylquinoxalin-5-yl)-5-fluorobenzo[d]thiazol-6-yl)oxy)butan-2-yl (2-((R)-2-hydroxypropoxy)pyrimidin-5-yl)carbamate], the IC50 amounted to 1.1 nM.

For `COCc1cnc2c(-c3nc4c(C)c(C)c(OCCO)cc4s3)cc(C)cc2n1` [Example 297, 2-((2-(2-(methoxymethyl)-7-methylquinoxalin-5-yl)-4,5-dimethylbenzo[d]thiazol-6-yl)oxy)ethanol], the IC50 stood at 5.7 nM.

Take `COc1ccc(NC(=O)OCC(C)Oc2cc3sc(-c4cc(C)cc5nc(OC)cnc45)nc3c(Cl)c2F)cn1` (racemic) [Example 381, 2-((4-chloro-5-fluoro-2-(2-methoxy-7-methylquinoxalin-5-yl)benzo[d]thiazol-6-yl)oxy)propyl (6-methoxypyridin-3-yl)carbamate]: the concentration for half-maximal inhibition (IC50) is 1.4 nM.

`COc1cnc2c(-c3nc4cc(F)c(OC[C@@H](C)OC(=O)Nc5cncc(F)c5)nc4s3)cc(C)cc2n1` [Example 682, (R)-1-((6-fluoro-2-(2-methoxy-7-methylquinoxalin-5-yl)thiazolo[5,4-b]pyridin-5-yl)oxy) propan-2-yl (5-fluoropyridin-3-yl)carbamate]: the IC50 is 0.9 nM.

`CNC(=O)c1cnc2c(-c3nc4cc(F)c(O[C@@H](C)[C@@H](C)OC(=O)Nc5cnc(C)nc5)cc4s3)cc(C)cc2n1` (stereo in doubt) [Example 393, (2R,3S)-3-((5-fluoro-2-(7-methyl-2-(methylcarbamoyl)quinoxalin-5-yl)benzo[d]thiazol-6-yl)oxy)butan-2-yl (2-methylpyrimidin-5-yl)carbamate]: the IC50 was determined as 30 nM.

Turning to `CCOc1cnc2c(-c3nc4cc(F)c(OC[C@@H](C)OC(=O)Nc5cnc(C)nc5)nc4s3)cc(C)cc2n1` [Example 813, (R)-1-((2-(2-ethoxy-7-methylquinoxalin-5-yl)-6-fluorothiazolo[5,4-b]pyridin-5-yl)oxy)propan-2-yl (2-methylpyrimidin-5-yl)carbamate], the IC50 worked out at 1 nM.

Consider `COc1cnc2c(-c3nc4cc(F)c(OC[C@@H](C)OC(=O)Nc5ccc(OCCO)nc5)nc4s3)cc(C)cc2n1` [Example 700, (R)-1-((6-fluoro-2-(2-methoxy-7-methylquinoxalin-5-yl)thiazolo[5,4-b]pyridin-5-yl)oxy) propan-2-yl (6-(2-hydroxyethoxy)pyridin-3-yl)carbamate], for which the IC50 is 0.9 nM.
